Results as given in patent US10125150B2, “Crystalline forms of a PI3K inhibitor” (Incyte Corporation, priority 2015, dated 2018).

How the values were obtained:
JAK2 (a.a. 828-1132) = JAK2 (a.a. 828-1132) (Homo sapiens (Human), UniProt O60674); assay: In vitro JAK kinase assay (Example D), JAK2; format: biochemical; conditions: ratio JAK2/JAK1 of IC50s, 1 mM ATP
[1] = biological target: human JAK1 (a.a. 837-1142) (Homo sapiens, UniProt P23458); assay: In vitro JAK kinase assay (Example D), JAK1; format: biochemical; conditions: 1 mM ATP

Chain of JAK2 (a.a. 828-1132) (O60674 828-1132): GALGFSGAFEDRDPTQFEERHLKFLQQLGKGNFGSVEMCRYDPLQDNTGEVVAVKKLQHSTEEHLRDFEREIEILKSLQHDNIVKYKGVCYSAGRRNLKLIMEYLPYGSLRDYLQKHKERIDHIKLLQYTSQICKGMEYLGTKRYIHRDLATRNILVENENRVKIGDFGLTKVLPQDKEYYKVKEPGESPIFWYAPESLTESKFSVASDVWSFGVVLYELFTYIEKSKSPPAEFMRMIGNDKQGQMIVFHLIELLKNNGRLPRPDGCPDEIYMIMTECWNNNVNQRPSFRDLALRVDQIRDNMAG

Row | SMILES | JAK2/JAK1 (JAK2 (a.a. 828-1132)) | IC50 [1]
1 | N#CCC(C1CCN(c2nc3cccnc3o2)C1)n1cc(-c2ncnc3[nH]ccc23)cn1 (centres unmarked) [Form 4, 3-(1-[1,3]oxazolo[5,4-b]pyridin-2-ylpyrrolidin-3-yl)-3-[4-(7H-pyrrolo[2,3-d]pyrimidin-4-yl)-1H-pyrazol-1-yl]propanenitrile] | >10 | < 10 nM
2 | N#CCC1(n2cc(-c3ncnc4[nH]ccc34)cn2)CN([C@H]2CC[C@@H](Oc3cc(CCO)nc(C(F)(F)F)n3)CC2)C1 [Form 18, {1-(cis-4-{[6-(2-hydroxyethyl)-2-(trifluoromethyl)pyrimidin-4-yl]oxy}cyclohexyl)-3-[4-(7H-pyrrolo[2,3-d]pyrimidin-4-yl)-1H-pyrazol-1-yl]azetidin-3-yl}acetonitrile] | >10 | < 10 nM
3 | N#CC[C@]1(n2cc(-c3ncnc4[nH]ccc34)cn2)C[C@H](N2CCC(Oc3cc(CCO)cc(C(F)(F)F)n3)CC2)C1 [Form 26, {trans-3-(4-{[4-(2-hydroxyethyl)-6-(trifluoromethyl)pyridin-2-yl]oxy}piperidin-1-yl)-1-[4-(7H-pyrrolo[2,3-d]pyrimidin-4-yl)-1H-pyrazol-1-yl]cyclobutyl}acetonitrile] | >10 | < 10 nM
4 | C[C@@H](CO)NCc1cc(OC2CCN([C@H]3C[C@](CC#N)(n4cc(-c5ncnc6[nH]ccc56)cn4)C3)CC2)nc(C(F)(F)F)c1 [Form 23, {trans-3-(4-{[4-({[(1S)-2-hydroxy-1-methylethyl]amino}methyl)-6-(trifluoromethyl)pyridin-2-yl]oxy}piperidin-1-yl)-1-[4-(7H-pyrrolo[2,3-d]pyrimidin-4-yl)-1H-pyrazol-1-yl]cyclobutyl}acetonitrile] | >10 | < 10 nM
5 | CC(C)(O)c1cc(O[C@H]2CC[C@@H](N3CC(CC#N)(n4cc(-c5ncnc6[nH]ccc56)cn4)C3)CC2)nc(C(F)(F)F)c1 [Form 20, {1-(cis-4-{[4-(1-hydroxy-1-methylethyl)-6-(trifluoromethyl)pyridin-2-yl]oxy}cyclohexyl)-3-[4-(7H-pyrrolo[2,3-d]pyrimidin-4-yl)-1H-pyrazol-1-yl]azetidin-3-yl}acetonitrile] | >10 | < 10 nM
6 | N#CCC1(n2cc(-c3ncnc4[nH]ccc34)cn2)CN(C2CCN(C(=O)c3ccnc(C(F)(F)F)n3)CC2)C1 [Form 9, [3-[4-(7H-pyrrolo[2,3-d]pyrimidin-4-yl)-1H-pyrazol-1-yl]-1-(1-{[2-(trifluoromethyl)pyrimidin-4-yl]carbonyl}piperidin-4-yl)azetidin-3-yl]acetonitrile] | >10 | < 10 nM
7 | N#CCC1(n2cc(-c3ncnc4[nH]ccc34)cn2)CN([C@H]2CC[C@@H](Oc3cc(CN4CC[C@H](O)C4)cc(C(F)(F)F)n3)CC2)C1 [Form 22, {1-(cis-4-{[4-{[(3S)-3-hydroxypyrrolidin-1-yl]methyl}-6-(trifluoromethyl)pyridin-2-yl]oxy}cyclohexyl)-3-[4-(7H-pyrrolo[2,3-d]pyrimidin-4-yl)-1H-pyrazol-1-yl]azetidin-3-yl}acetonitrile] | >10 | < 10 nM
8 | N#CC[C@]1(n2cc(-c3ncnc4[nH]ccc34)cn2)C[C@H](N2CCC(Oc3cc(CN4CCC[C@@H]4CO)cc(C(F)(F)F)n3)CC2)C1 [Form 13, {trans-3-(4-{[4-{[(2R)-2-(hydroxymethyl)pyrrolidin-1-yl]methyl}-6-(trifluoromethyl)pyridin-2-yl]oxy}piperidin-1-yl)-1-[4-(7H-pyrrolo[2,3-d]pyrimidin-4-yl)-1H-pyrazol-1-yl]cyclobutyl}acetonitrile] | >10 | < 10 nM
9 | CCNCc1cc(O[C@H]2CC[C@@H](N3CC(CC#N)(n4cc(-c5ncnc6[nH]ccc56)cn4)C3)CC2)nc(C(F)(F)F)c1 [Form 19, {1-(cis-4-{[4-[(ethylamino)methyl]-6-(trifluoromethyl)pyridin-2-yl]oxy}cyclohexyl)-3-[4-(7H-pyrrolo[2,3-d]pyrimidin-4-yl)-1H-pyrazol-1-yl]azetidin-3-yl}acetonitrile] | >10 | < 10 nM
10 | C[C@@H](O)c1nc2cnc3ccsc3c2n1[C@H]1CC[C@H](CC#N)OC1 [Form 1, ((2R,5S)-5-{2-[(1R)-1-hydroxyethyl]-1H-imidazo[4,5-d]thieno[3,2-b]pyridin-1-yl}tetrahydro-2H-pyran-2-yl)acetonitrile] | >10 | < 100 nM
11 | C[C@H](NC(=O)c1cc(F)c(N2CC(CC#N)(n3cc(-c4ncnc5[nH]ccc45)cn3)C2)cc1F)C(F)(F)F [Form 16, 4-{3-(cyanomethyl)-3-[4-(7H-pyrrolo[2,3-d]pyrimidin-4-yl)-1H-pyrazol-1-yl]azetidin-1-yl}-2,5-difluoro-N-[(1S)-2,2,2-trifluoro-1-methylethyl]benzamide] | >10 | < 10 nM
12 | C[C@H](O)CNCc1cc(OC2CCN([C@H]3C[C@](CC#N)(n4cc(-c5ncnc6[nH]ccc56)cn4)C3)CC2)nc(C(F)(F)F)c1 [Form 25, {trans-3-(4-([4-({[(2S)-2-hydroxypropyl]amino}methyl)-6-(trifluoromethyl)pyridin-2-yl]oxy}piperidin-1-yl)-1-[4-(7H-pyrrolo[2,3-d]pyrimidin-4-yl)-1H-pyrazol-1-yl]cyclobutyl}acetonitrile] | >10 | < 10 nM
13 | C[C@@H](O)CNCc1cc(OC2CCN([C@H]3C[C@](CC#N)(n4cc(-c5ncnc6[nH]ccc56)cn4)C3)CC2)nc(C(F)(F)F)c1 [Form 24, {trans-3-(4-{[4-({[(2R)-2-hydroxypropyl]amino}methyl)-6-(trifluoromethyl)pyridin-2-yl]oxy}piperidin-1-yl)-1-[4-(7H-pyrrolo[2,3-d]pyrimidin-4-yl)-1H-pyrazol-1-yl]cyclobutyl}acetonitrile] | >10 | < 10 nM
14 | N#CCC(CN1CCN(C(=O)c2ccc(C#N)cc2F)CC1)n1cc(-c2ncnc3[nH]ccc23)cn1 (centres unmarked) [Form 5, 4-[(4-{3-cyano-2-[4-(7H-pyrrolo[2,3-d]pyrimidin-4-yl)-1H-pyrazol-1-yl]propyl}piperazin-1-yl)carbonyl]-3-fluorobenzonitrile] | >10 | < 10 nM
15 | N#CCC1(n2cc(-c3ncnc4[nH]ccc34)cn2)CN([C@H]2CC[C@@H](Oc3cc(CN4CC[C@@H](O)C4)cc(C(F)(F)F)n3)CC2)C1 [Form 21, {1-(cis-4-{[4-{[(3R)-3-hydroxypyrrolidin-1-yl]methyl}-6-(trifluoromethyl)pyridin-2-yl]oxy}cyclohexyl)-3-[4-(7H-pyrrolo[2,3-d]pyrimidin-4-yl)-1H-pyrazol-1-yl]azetidin-3-yl}acetonitrile] | >10 | < 10 nM
16 | N#CCC(C1CCN(c2cccc(Cl)n2)C1)n1cc(-c2ncnc3[nH]ccc23)cn1 (single isomer, unassigned) [Form 3, 3-[1-(6-chloropyridin-2-yl)pyrrolidin-3-yl]-3-[4-(7H-pyrrolo[2,3-d]pyrimidin-4-yl)-1H-pyrazol-1-yl]propanenitrile] | >10 | < 10 nM
17 | N#CCC1(n2cc(-c3ncnc4[nH]ccc34)cn2)CN(C2CCN(C(=O)c3ccnc(C(F)(F)F)c3F)CC2)C1 [Form 7, {1-{1-[3-Fluoro-2-(trifluoromethyl)isonicotinoyl]piperidin-4-yl}-3-[4-(7H-pyrrolo[2,3-d]pyrimidin-4-yl)-1H-pyrazol-1-yl]azetidin-3-yl}acetonitrile] | >10 | < 10 nM
18 | N#CCC(CN1CCN(C(=O)c2ccc(C#N)cc2F)CC1)n1ccc(-c2ncnc3[nH]ccc23)c1 (centres unmarked) [Form 6, 4-[(4-{3-cyano-2-[3-(7H-pyrrolo[2,3-d]pyrimidin-4-yl)-1H-pyrrol-1-yl]propyl}piperazin-1-yl)carbonyl]-3-fluorobenzonitrile] | >10 | < 10 nM
19 | N#CC[C@]1(n2cc(-c3ncnc4[nH]ccc34)cn2)C[C@H](N2CCN(C(=O)c3ccnc(C(F)(F)F)n3)CC2)C1 [Form 10, [trans-1-[4-(7H-pyrrolo[2,3-d]pyrimidin-4-yl)-1H-pyrazol-1-yl]-3-(4-{[2-(trifluoromethyl)pyrimidin-4-yl]carbonyl}piperazin-1-yl)cyclobutyl]acetonitrile] | >10 | < 10 nM
20 | N#CC[C@]1(n2cc(-c3ncnc4[nH]ccc34)cn2)C[C@H](N2CCC(Oc3cc(CN4CCC[C@H]4CO)cc(C(F)(F)F)n3)CC2)C1 [Form 12, {trans-3-(4-{[4-{[(2S)-2-(hydroxymethyl)pyrrolidin-1-yl]methyl}-6-(trifluoromethyl)pyridin-2-yl]oxy}piperidin-1-yl)-1-[4-(7H-pyrrolo[2,3-d]pyrimidin-4-yl)-1H-pyrazol-1-yl]cyclobutyl}acetonitrile] | >10 | < 10 nM
21 | N#CCC1(n2cc(-c3ncnc4[nH]ccc34)cn2)CN(C2CCN(C(=O)Nc3ccc(F)cc3C(F)(F)F)CC2)C1 [Form 8, 4-{3-(Cyanomethyl)-3-[4-(7H-pyrrolo[2,3-d]pyrimidin-4-yl)-1H-pyrazol-1-yl]azetidin-1-yl}-N-[4-fluoro-2-(trifluoromethyl)phenyl]piperidine-1-carboxamide] | >10 | < 10 nM
22 | N#CC[C@]1(n2cc(-c3ncnc4[nH]ccc34)cn2)C[C@H](N2CCC(Oc3cc(CN4CC(O)C4)cc(C(F)(F)F)n3)CC2)C1 [Form 11, {trans-3-(4-{[4-[(3-hydroxyazetidin-1-yl)methyl]-6-(trifluoromethyl)pyridin-2-yl]oxy}piperidin-1-yl)-1-[4-(7H-pyrrolo[2,3-d]pyrimidin-4-yl)-1H-pyrazol-1-yl]cyclobutyl}acetonitrile] | >10 | < 10 nM
